In ChEMBL document CHEMBL4177750, “Imidazopyrazinones (IPYs): Non-Quinolone Bacterial Topoisomerase Inhibitors Showing Partial Cross-Resistance with Quinolones” (J Med Chem, 2018):
Converted amounts (≈) assume the structure as drawn. The source made the active and inactive calls. No cut-off for these calls is given here.

Columns and labels:
Escherichia coli [1] = assay: Antibacterial activity against ESBL producing Escherichia coli ATCC 35218 after 20 to 22 hrs; format: functional
Escherichia coli [2] = assay: Antibacterial activity against Escherichia coli K-12 MG1655 after 20 to 22 hrs; conditions: K-12 substr. MG1655
Escherichia coli [3] = assay: Antibacterial activity against tolC-deficient Escherichia coli K-12 MG1655 after 20 to 22 hrs; format: functional; conditions: K-12 substr. MG1655
Escherichia coli [4] = assay: Antibacterial activity against hyperpermeable Escherichia coli D22 harboring LpxC mutant after 20 to 22 hrs
Pseudomonas aeruginosa [5] = assay: Antibacterial activity against Pseudomonas aeruginosa PAO1 after 20 to 22 hrs; format: functional
Pseudomonas aeruginosa [6] = assay: Antibacterial activity against Pseudomonas aeruginosa PAO750 harboring mexAB-oprM/mexCD-oprJ/mexEF-oprN/mexXY/opmH/mexJK/pscC deletion mutant after 20 to 22 hrs; format: functional
Staphylococcus aureus [7] = assay: Antibacterial activity against methicillin-resistant Staphylococcus aureus ATCC 33592 after 20 to 22 hrs; format: functional
[8] = Cytotoxicity against human HepG2 cells assessed as decrease in cell viability after 40 hrs by Celltiter Glo assay
Acinetobacter baumannii [9] = assay: Antibacterial activity against Acinetobacter baumannii BM4652 harboring adeABC/adeIJK deletion mutant after 20 to 22 hrs; format: functional
Klebsiella pneumoniae [10] = assay: Antibacterial activity against tolC-deficient Klebsiella pneumoniae 1161486a after 20 to 22 hrs; format: functional
Acinetobacter baumannii [11] = assay: Antibacterial activity against Acinetobacter baumannii BM4454 after 20 to 22 hrs; format: functional
Klebsiella pneumoniae [12] = assay: Antibacterial activity against Klebsiella pneumoniae 1161486 after 20 to 22 hrs; format: functional
Staphylococcus aureus [13] = assay: Antibacterial activity against methicillin-resistant Staphylococcus aureus ATCC 33592 after 20 to 22 hrs in presence of 50% calf fetal serum; format: functional, organism-based
Staphylococcus aureus [14] = assay: Antibacterial activity against methicillin-resistant Staphylococcus aureus ATCC 33592 after 20 to 22 hrs in presence of 50% mouse serum; format: functional, organism-based
[15] = target: T1, Muscarinic acetylcholine receptor M1 (Homo sapiens) (UniProt P11229); assay: Inhibition of M1 receptor (unknown origin) at 10 uM relative to control
T1 sequence (whole entry): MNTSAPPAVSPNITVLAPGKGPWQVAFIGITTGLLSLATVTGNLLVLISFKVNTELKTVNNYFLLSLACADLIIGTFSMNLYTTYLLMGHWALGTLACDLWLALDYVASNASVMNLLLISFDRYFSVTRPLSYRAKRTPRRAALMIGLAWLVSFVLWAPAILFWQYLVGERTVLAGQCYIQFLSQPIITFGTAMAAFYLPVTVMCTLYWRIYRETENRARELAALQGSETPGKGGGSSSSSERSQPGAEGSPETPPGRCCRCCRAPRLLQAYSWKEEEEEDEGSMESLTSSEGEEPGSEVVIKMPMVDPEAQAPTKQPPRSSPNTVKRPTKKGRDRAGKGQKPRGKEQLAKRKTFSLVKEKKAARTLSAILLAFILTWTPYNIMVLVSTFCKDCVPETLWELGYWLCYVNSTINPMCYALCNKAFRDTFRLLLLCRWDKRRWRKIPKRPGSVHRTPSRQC

[16] = target: Muscarinic acetylcholine receptor M3 (Homo sapiens) (UniProt P20309); assay: Inhibition of M3 receptor (unknown origin) at 10 uM relative to control
Chain of Muscarinic acetylcholine receptor M3 (Homo sapiens) (P20309 whole entry, looked up): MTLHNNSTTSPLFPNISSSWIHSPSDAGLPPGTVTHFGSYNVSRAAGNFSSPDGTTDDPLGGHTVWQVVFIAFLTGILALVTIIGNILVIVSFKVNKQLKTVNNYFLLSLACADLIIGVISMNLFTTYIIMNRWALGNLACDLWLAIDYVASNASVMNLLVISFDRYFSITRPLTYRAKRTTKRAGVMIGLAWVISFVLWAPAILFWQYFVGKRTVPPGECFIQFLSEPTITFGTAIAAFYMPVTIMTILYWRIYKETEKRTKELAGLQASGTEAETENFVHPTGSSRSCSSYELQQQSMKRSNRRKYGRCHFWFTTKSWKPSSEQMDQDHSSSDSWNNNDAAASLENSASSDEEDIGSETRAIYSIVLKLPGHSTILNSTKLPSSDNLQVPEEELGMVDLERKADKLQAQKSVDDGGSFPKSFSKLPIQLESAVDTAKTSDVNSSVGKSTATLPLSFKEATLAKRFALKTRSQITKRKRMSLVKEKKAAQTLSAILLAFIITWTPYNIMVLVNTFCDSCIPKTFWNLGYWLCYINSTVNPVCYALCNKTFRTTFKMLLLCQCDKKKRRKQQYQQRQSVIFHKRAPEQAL

[17] = Thermodynamic aqueous solubility of the compound at pH 7.4; conditions: aqueous solution
[18] = Apparent permeability across human Caco2 cells; conditions: Caco-2
[19] = Drug metabolism in human liver microsomes at 5 uM after 20 mins in presence of NADPH; format: ADME, microsome; conditions: read-out: Drug metabolism
[20] = Drug metabolism in mouse liver microsomes at 5 uM after 20 mins in presence of NADPH; format: ADME, microsome; conditions: read-out: Drug metabolism
[21] = Drug metabolism in rat liver microsomes at 5 uM after 20 mins in presence of NADPH; format: ADME, microsome; conditions: read-out: Drug metabolism
Cytochrome P450 3A4 [22] = target: T2, Cytochrome P450 3A4 (Homo sapiens, UniProt P08684); assay: Inhibition of CYP3A4-mediated midazolam metabolism in human liver microsomes
T2 sequence (P08684 whole entry): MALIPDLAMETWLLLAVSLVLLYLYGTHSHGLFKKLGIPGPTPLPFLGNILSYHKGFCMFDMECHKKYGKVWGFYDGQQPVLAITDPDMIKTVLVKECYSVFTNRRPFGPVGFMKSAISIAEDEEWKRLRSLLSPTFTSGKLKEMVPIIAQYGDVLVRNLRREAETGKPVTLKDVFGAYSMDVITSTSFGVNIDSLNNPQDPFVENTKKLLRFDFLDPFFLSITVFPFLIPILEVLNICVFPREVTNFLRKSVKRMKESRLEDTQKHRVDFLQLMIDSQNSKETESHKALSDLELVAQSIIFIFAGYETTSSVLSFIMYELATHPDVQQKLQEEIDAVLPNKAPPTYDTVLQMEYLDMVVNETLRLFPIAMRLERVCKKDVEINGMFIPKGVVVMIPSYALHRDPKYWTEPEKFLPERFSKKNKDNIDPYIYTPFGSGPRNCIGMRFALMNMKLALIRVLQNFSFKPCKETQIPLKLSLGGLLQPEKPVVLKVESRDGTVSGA

Cytochrome P450 3A4 [23] = target: T2, Cytochrome P450 3A4; assay: Inhibition of CYP3A4-mediated testosterone metabolism in human liver microsomes
[24] = target: Voltage-gated inwardly rectifying potassium channel KCNH2 (Homo sapiens, UniProt Q12809); assay: Inhibition of human ERG transfected in CHO cells by patch clamp method
Chain of Voltage-gated inwardly rectifying potassium channel KCNH2 (Q12809 whole entry): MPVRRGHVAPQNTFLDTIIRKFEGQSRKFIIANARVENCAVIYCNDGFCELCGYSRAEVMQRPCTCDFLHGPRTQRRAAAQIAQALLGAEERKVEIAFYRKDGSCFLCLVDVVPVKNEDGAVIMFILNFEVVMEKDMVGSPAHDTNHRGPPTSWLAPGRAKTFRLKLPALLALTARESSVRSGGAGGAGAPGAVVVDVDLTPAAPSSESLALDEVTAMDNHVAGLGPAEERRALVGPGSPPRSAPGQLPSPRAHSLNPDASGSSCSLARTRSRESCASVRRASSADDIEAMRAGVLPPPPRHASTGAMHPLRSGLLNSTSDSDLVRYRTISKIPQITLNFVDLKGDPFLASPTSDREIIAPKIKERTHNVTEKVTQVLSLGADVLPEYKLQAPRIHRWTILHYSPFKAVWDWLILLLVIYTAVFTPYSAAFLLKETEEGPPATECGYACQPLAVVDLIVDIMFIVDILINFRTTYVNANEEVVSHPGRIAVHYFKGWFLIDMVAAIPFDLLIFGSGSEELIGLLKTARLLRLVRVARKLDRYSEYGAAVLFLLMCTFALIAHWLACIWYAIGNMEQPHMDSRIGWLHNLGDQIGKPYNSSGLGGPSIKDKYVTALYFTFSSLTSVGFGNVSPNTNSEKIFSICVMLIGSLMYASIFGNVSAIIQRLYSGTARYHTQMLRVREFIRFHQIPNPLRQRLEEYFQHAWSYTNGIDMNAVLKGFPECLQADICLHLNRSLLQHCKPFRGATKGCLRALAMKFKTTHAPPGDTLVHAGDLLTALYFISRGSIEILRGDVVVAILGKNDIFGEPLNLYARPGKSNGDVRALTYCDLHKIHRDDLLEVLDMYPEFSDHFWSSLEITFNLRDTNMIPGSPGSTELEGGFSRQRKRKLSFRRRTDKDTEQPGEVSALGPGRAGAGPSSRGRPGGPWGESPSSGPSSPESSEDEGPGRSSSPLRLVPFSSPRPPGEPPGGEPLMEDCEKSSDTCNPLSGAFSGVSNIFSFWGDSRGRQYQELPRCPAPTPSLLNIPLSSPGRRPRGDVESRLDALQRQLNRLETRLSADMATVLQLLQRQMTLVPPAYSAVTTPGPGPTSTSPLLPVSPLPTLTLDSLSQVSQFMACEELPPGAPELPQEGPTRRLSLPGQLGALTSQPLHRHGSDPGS

[25] = Metabolic stability in mouse plasma at 1 uM after 4 hrs; format: ADME, cell-free; conditions: read-out: Stability
[26] = Metabolic stability in rat plasma at 1 uM after 4 hrs; format: ADME, cell-free; conditions: read-out: Stability
L5178Y [27] = assay: Genotoxicity in mouse L5178Y cells after 23 hrs in absence of S9 fraction by micronucleus test; format: toxicity, cell-based
L5178Y [28] = assay: Genotoxicity in mouse L5178Y cells after 3 hrs in presence of S9 fraction by micronucleus test; format: toxicity, cell-based; conditions: s9, 3 h
Mus musculus [29] = assay: Toxicity in Swiss mouse at 30 mg/kg, iv bid administered as bolus dose every 2 hrs measured daily for 5 days; format: organism-based; conditions: in vivo, 120 h
Escherichia coli [30] = assay: Antibacterial activity against Escherichia coli ATCC 35218 in Swiss mouse septicemia model assessed as mouse survival at 15 mg/kg, iv bid administered at 1 and 3 hrs post infection measured at 96 hrs relative to vehicle-treated control; format: functional; conditions: ATCC 35218, iv
Escherichia coli [31] = assay: Antibacterial activity against Escherichia coli ATCC 35218 in Swiss mouse septicemia model assessed as mouse survival at 30 mg/kg, iv bid administered at 1 and 3 hrs post infection measured at 96 hrs relative to vehicle-treated control; format: functional; conditions: ATCC 35218, iv
Escherichia coli [32] = assay: Antibacterial activity against Escherichia coli ATCC 35218 in Swiss mouse septicemia model assessed as decrease in bacterial burden in blood at 15 mg/kg, iv bid administered at 1 and 3 hrs post infection measured at 4 hrs relative to vehicle-treated control; format: functional
Escherichia coli [33] = assay: Antibacterial activity against Escherichia coli ATCC 35218 in Swiss mouse septicemia model assessed as decrease in bacterial burden in blood at 30 mg/kg, iv bid administered at 1 and 3 hrs post infection measured at 4 hrs relative to vehicle-treated control; format: functional
[34] = Protein binding in mouse plasma by equilibrium dialysis method; format: ADME, cell-free; conditions: read-out: PPB (converted)
[35] = AUC (0 to last) in Swiss mouse plasma at 30 mg/kg, iv administered as single bolus dose by LC-MS/MS method; format: ADME, organism-based; set-up: dose 30 mg/kg, route intravenous, time 0 - last
[36] = Half life in Swiss mouse plasma at 30 mg/kg, iv administered as single bolus dose by LC-MS/MS method; format: ADME, organism-based
[37] = Unbound concentration in Swiss mouse plasma at 30 mg/kg, iv administered as single bolus dose measured at 5 mins by LC-MS/MS method; format: ADME, organism-based; conditions: in vivo
[38] = Drug uptake in Swiss mouse lung at 30 mg/kg, iv administered as single bolus dose by LC-MS/MS method; format: ADME, organism-based; conditions: in vivo
[39] = Drug uptake in Swiss mouse liver at 30 mg/kg, iv administered as single bolus dose by LC-MS/MS method; format: ADME, organism-based; conditions: in vivo
[40] = Drug uptake in Swiss mouse kidney at 30 mg/kg, iv administered as single bolus dose by LC-MS/MS method; format: ADME, organism-based; conditions: in vivo
Mus musculus [41] = assay: Time during which free lung concentration exceeds in vitro MIC for Escherichia coli ATCC 35218 in Swiss mouse at 30 mg/kg, iv administered as single bolus dose by LC-MS/MS method; format: ADME, organism-based; conditions: in vivo
Mus musculus [42] = assay: Time during which free liver concentration exceeds in vitro MIC for Escherichia coli ATCC 35218 in Swiss mouse at 30 mg/kg, iv administered as single bolus dose by LC-MS/MS method; format: ADME, organism-based; conditions: in vivo
Mus musculus [43] = assay: Time during which free kidney concentration exceeds in vitro MIC for Escherichia coli ATCC 35218 in Swiss mouse at 30 mg/kg, iv administered as single bolus dose by LC-MS/MS method; format: ADME, organism-based; conditions: in vivo

N[C@H]1CCN(c2cc3c(cc2F)n2ncnc2c(=O)n3C2CC2)C1
MIC (Escherichia coli [1]): 2 µg/mL (≈ 6.09 µM)
MIC (Escherichia coli [2]): 4 µg/mL (≈ 12.2 µM)
MIC (Escherichia coli [3]): < 0.125 µg/mL
MIC (Escherichia coli [4]): 1 µg/mL (≈ 3.05 µM)
MIC (Pseudomonas aeruginosa [5]): > 64 µg/mL
MIC (Pseudomonas aeruginosa [6]): 1 µg/mL (≈ 3.05 µM)
MIC (Staphylococcus aureus [7]): 4 µg/mL (≈ 12.2 µM)
CC50 at 40 h [8]: > 30 µM
MIC (Acinetobacter baumannii [9]): 4 µg/mL (≈ 12.2 µM)
MIC (Klebsiella pneumoniae [10]): 0.5 µg/mL (≈ 1.52 µM)
MIC (Acinetobacter baumannii [11]): > 64 µg/mL
MIC (Klebsiella pneumoniae [12]): 32 µg/mL (≈ 97.5 µM)
Activity (Staphylococcus aureus [13]): Active
Activity (Staphylococcus aureus [14]): Active
inhibition [15]: 50 to 60%
inhibition [16]: 50 to 60%
solubility thermodynamic [17]: 926 µg/mL (≈ 2820 µM)
Papp [18]: 3.2 ×10⁻⁶ cm/s
metabolised at 20 min, 5 µM [19]: 0%
metabolised at 20 min, 5 µM [20]: 8%
metabolised at 20 min, 5 µM [21]: 8%
IC50 (Cytochrome P450 3A4 [22]): > 30 µM
IC50 (Cytochrome P450 3A4 [23]): > 30 µM
IC50 [24]: > 30 µM
remaining at 4 h, 1 µM [25]: 80 to 120%
remaining at 4 h, 1 µM [26]: 80 to 120%
Activity (L5178Y [27]): Toxic
Activity (L5178Y [28]): Toxic
Activity (Mus musculus [29]): Non-Toxic
survival at 15 mg/kg (Escherichia coli [30]): 0%
survival at 30 mg/kg (Escherichia coli [31]): 30%
Activity (Escherichia coli [32]): 1.6 deltalog10CFU/ml
Activity (Escherichia coli [33]): 3.2 deltalog10CFU/ml
fraction unbound [34]: 0.38
AUC(0-t) [35]: 7200 ng·h/mL
half-life [36]: 1 h
Cp(f) [37]: 2500 ng/mL
Drug uptake [38]: Active
Drug uptake [39]: Active
Drug uptake [40]: Active
Time (Mus musculus [41]): 2 h
Time (Mus musculus [42]): 2 h
Time (Mus musculus [43]): 2 h
